In ChEMBL document CHEMBL4507295 (2021):

How the values were obtained:
[1] = system: Tyrosine-protein kinase ABL1 (Homo sapiens), P00519 [T315I]; conditions: Compound concentration 1000.0 nM
[2] = biological target: Activin receptor type-1 (Homo sapiens) (UniProt Q04771); conditions: Compound concentration 1000.0 nM
[3] = biological target: Atypical kinase COQ8B, mitochondrial (Homo sapiens) (UniProt Q96D53); conditions: Compound concentration 1000.0 nM
[4] = biological target: NUAK family SNF1-like kinase 1 (Homo sapiens) (UniProt O60285); conditions: Compound concentration 1000.0 nM
[5] = biological target: Aurora kinase C (Homo sapiens) (UniProt Q9UQB9); conditions: Compound concentration 1000.0 nM
[6] = biological target: Calcium/calmodulin-dependent protein kinase type IV (Homo sapiens) (UniProt Q16566); conditions: Compound concentration 1000.0 nM
[7] = biological target: Cyclin-dependent kinase 19 (Homo sapiens) (UniProt Q9BWU1); conditions: Compound concentration 1000.0 nM
[8] = biological target: Cyclin-dependent kinase-like 2 (Homo sapiens) (UniProt Q92772); conditions: Compound concentration 1000.0 nM
[9] = biological target: Death-associated protein kinase 3 (Homo sapiens) (UniProt O43293); conditions: Compound concentration 1000.0 nM
[10] = biological target: Dual specificity tyrosine-phosphorylation-regulated kinase 2 (Homo sapiens) (UniProt Q92630); conditions: Compound concentration 1000.0 nM
[11] = biological target: Receptor tyrosine-protein kinase erbB-2 (Homo sapiens) (UniProt P04626); conditions: Compound concentration 1000.0 nM
[12] = biological target: Mitogen-activated protein kinase 3 (Homo sapiens) (UniProt P27361); conditions: Compound concentration 1000.0 nM
[13] = biological target: Fibroblast growth factor receptor 3 (Homo sapiens) (UniProt P22607); conditions: Compound concentration 1000.0 nM
[14] = biological target: Vascular endothelial growth factor receptor 3 (Homo sapiens) (UniProt P35916); conditions: Compound concentration 1000.0 nM
[15] = biological target: Serine/threonine-protein kinase haspin (Homo sapiens) (UniProt Q8TF76); conditions: Compound concentration 1000.0 nM
[16] = system: Mast/stem cell growth factor receptor Kit (Homo sapiens), P10721 [V559D,T670I]; conditions: Compound concentration 1000.0 nM
[17] = biological target: Tyrosine-protein kinase Lck (Homo sapiens) (UniProt P06239); conditions: Compound concentration 1000.0 nM
[18] = biological target: Leucine-rich repeat serine/threonine-protein kinase 2 (Homo sapiens) (UniProt Q5S007); conditions: Compound concentration 1000.0 nM
[19] = system: Leucine-rich repeat serine/threonine-protein kinase 2 (Homo sapiens), Q5S007 [G2019S]; conditions: Compound concentration 1000.0 nM
[20] = biological target: Dual specificity mitogen-activated protein kinase kinase 2 (Homo sapiens) (UniProt P36507); conditions: Compound concentration 1000.0 nM
[21] = biological target: Dual specificity mitogen-activated protein kinase kinase 3 (Homo sapiens) (UniProt P46734); conditions: Compound concentration 1000.0 nM
[22] = biological target: Maternal embryonic leucine zipper kinase (Homo sapiens) (UniProt Q14680); conditions: Compound concentration 1000.0 nM
[23] = biological target: Serine/threonine-protein kinase 38-like (Homo sapiens) (UniProt Q9Y2H1); conditions: Compound concentration 1000.0 nM
[24] = biological target: Serine/threonine-protein kinase Nek1 (Homo sapiens) (UniProt Q96PY6); conditions: Compound concentration 1000.0 nM
[25] = biological target: Serine/threonine-protein kinase OSR1 (Homo sapiens) (UniProt O95747); conditions: Compound concentration 1000.0 nM
[26] = biological target: Mitogen-activated protein kinase 11 (Homo sapiens) (UniProt Q15759); conditions: Compound concentration 1000.0 nM
[27] = biological target: Serine/threonine-protein kinase PAK 2 (Homo sapiens) (UniProt Q13177); conditions: Compound concentration 1000.0 nM
[28] = biological target: Serine/threonine-protein kinase N2 (Homo sapiens) (UniProt Q16513); conditions: Compound concentration 1000.0 nM
[29] = biological target: Serine/threonine-protein kinase PknB (Mycobacterium tuberculosis) (UniProt P9WI81); conditions: Compound concentration 1000.0 nM
[30] = biological target: Serine/threonine-protein kinase PLK2 (Homo sapiens) (UniProt Q9NYY3); conditions: Compound concentration 1000.0 nM
[31] = biological target: Protein kinase C iota type (Homo sapiens) (UniProt P41743); conditions: Compound concentration 1000.0 nM
[32] = biological target: Interferon-induced, double-stranded RNA-activated protein kinase (Homo sapiens) (UniProt P19525); conditions: Compound concentration 1000.0 nM
[33] = system: Proto-oncogene tyrosine-protein kinase receptor Ret (Homo sapiens), P07949 [V804M]; conditions: Compound concentration 1000.0 nM
[34] = biological target: Dual serine/threonine and tyrosine protein kinase (Homo sapiens) (UniProt Q6XUX3); conditions: Compound concentration 1000.0 nM
[35] = biological target: Ribosomal protein S6 kinase alpha-5 (Homo sapiens) (UniProt O75582); conditions: Compound concentration 1000.0 nM
[36] = biological target: Ribosomal protein S6 kinase alpha-1 (Homo sapiens) (UniProt Q15418); conditions: Compound concentration 1000.0 nM
[37] = biological target: Ribosomal protein S6 kinase alpha-2 (Homo sapiens) (UniProt Q15349); conditions: Compound concentration 1000.0 nM
[38] = biological target: Serine/threonine-protein kinase 35 (Homo sapiens) (UniProt Q8TDR2); conditions: Compound concentration 1000.0 nM
[39] = biological target: Dual specificity testis-specific protein kinase 1 (Homo sapiens) (UniProt Q15569); conditions: Compound concentration 1000.0 nM
[40] = biological target: Sodium-dependent noradrenaline transporter (Homo sapiens) (UniProt P23975); conditions: Compound concentration 10.0 uM
[41] = biological target: Kappa-type opioid receptor (Homo sapiens) (UniProt P41145); conditions: Compound concentration 10.0 uM
[42] = biological target: Beta-1 adrenergic receptor (Homo sapiens) (UniProt P08588); conditions: Compound concentration 10.0 uM
Rattus norvegicus = organism: Rattus norvegicus; conditions: Compound concentration 10.0 uM

Sodium-dependent noradrenaline transporter (Homo sapiens), sequence (P23975 whole entry): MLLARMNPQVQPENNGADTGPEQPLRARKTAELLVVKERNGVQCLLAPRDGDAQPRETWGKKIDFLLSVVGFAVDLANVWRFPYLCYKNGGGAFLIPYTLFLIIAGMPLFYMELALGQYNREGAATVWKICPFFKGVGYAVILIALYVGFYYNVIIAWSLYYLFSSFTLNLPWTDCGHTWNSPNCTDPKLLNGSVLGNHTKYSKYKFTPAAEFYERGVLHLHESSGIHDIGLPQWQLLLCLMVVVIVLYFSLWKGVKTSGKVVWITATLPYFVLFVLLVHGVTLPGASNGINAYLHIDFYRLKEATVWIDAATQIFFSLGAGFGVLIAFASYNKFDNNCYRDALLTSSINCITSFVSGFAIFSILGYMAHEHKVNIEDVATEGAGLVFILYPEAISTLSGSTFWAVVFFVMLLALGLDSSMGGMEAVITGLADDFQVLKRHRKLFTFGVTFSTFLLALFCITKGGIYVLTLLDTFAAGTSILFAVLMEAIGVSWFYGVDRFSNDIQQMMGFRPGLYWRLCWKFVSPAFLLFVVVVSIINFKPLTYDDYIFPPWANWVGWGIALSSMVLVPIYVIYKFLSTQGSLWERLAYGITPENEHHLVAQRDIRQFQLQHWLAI
NUAK family SNF1-like kinase 1 (Homo sapiens), sequence (O60285 whole entry): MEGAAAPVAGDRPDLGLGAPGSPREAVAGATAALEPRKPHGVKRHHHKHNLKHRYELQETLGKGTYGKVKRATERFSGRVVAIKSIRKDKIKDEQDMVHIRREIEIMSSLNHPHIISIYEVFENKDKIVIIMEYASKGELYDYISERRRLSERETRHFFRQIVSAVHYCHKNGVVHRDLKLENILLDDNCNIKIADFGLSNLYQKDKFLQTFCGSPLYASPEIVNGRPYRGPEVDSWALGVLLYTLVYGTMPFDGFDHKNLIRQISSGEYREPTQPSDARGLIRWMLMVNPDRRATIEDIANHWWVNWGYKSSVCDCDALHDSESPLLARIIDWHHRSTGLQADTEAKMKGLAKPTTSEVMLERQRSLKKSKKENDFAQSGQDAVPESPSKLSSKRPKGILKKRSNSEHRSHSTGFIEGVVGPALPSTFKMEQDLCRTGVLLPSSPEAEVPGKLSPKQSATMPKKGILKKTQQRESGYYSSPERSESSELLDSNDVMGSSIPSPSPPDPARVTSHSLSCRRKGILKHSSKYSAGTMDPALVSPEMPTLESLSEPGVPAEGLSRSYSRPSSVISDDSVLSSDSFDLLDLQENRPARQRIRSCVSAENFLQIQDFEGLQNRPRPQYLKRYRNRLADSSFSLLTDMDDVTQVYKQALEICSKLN
Mitogen-activated protein kinase 11 (Homo sapiens), sequence (Q15759 whole entry): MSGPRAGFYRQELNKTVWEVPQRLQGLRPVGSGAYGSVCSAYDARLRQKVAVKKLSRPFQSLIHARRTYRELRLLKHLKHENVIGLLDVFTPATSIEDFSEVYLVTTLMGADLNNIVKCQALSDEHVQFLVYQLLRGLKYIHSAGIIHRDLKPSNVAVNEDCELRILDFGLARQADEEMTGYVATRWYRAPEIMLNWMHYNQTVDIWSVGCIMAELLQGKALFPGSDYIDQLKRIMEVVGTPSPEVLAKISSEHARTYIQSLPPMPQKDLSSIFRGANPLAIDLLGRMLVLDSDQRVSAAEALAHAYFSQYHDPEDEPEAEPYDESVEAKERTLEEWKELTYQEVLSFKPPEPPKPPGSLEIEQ
Serine/threonine-protein kinase Nek1 (Homo sapiens), sequence (Q96PY6 whole entry): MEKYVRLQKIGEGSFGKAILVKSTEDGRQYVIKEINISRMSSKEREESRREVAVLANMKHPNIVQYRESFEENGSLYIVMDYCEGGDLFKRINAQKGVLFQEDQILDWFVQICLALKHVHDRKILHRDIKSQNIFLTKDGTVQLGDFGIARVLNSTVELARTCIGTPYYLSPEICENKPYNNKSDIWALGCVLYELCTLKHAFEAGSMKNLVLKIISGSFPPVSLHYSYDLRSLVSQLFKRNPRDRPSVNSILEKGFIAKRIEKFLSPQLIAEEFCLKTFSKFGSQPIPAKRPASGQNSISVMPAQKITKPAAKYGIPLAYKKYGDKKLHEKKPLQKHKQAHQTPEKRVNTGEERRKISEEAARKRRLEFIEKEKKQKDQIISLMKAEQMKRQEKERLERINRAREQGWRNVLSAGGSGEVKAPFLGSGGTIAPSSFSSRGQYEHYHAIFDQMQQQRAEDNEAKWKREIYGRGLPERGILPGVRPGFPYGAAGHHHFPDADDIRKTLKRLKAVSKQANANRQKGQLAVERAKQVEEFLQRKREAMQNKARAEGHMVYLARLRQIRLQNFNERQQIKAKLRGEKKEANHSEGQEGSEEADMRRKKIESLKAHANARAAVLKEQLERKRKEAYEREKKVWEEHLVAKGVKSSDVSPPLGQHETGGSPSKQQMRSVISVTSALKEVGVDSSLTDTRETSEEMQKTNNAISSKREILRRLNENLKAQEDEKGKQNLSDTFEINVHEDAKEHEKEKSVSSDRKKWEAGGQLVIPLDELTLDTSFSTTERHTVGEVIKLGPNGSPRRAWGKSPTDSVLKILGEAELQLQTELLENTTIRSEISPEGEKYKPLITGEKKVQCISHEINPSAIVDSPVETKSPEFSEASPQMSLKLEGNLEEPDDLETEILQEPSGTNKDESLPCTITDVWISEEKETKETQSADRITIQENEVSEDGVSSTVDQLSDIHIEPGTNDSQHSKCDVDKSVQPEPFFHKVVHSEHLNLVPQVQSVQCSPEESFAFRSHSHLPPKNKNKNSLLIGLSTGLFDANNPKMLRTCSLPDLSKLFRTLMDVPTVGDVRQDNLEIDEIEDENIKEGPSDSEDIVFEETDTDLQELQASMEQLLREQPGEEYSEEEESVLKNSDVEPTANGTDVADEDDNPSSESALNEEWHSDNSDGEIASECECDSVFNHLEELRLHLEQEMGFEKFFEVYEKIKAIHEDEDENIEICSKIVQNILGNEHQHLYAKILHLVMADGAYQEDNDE
Dual specificity mitogen-activated protein kinase kinase 2 (Homo sapiens), sequence (P36507 whole entry): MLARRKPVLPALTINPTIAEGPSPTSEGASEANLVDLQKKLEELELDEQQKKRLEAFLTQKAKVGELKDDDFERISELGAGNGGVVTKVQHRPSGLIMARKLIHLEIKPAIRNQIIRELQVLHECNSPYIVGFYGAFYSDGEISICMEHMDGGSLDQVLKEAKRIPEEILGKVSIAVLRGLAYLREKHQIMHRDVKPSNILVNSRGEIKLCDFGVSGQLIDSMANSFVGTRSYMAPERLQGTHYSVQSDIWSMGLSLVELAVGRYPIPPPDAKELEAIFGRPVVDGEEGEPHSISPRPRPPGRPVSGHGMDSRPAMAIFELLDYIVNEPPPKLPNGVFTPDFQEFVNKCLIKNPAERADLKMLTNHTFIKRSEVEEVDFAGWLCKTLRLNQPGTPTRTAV
Receptor tyrosine-protein kinase erbB-2 (Homo sapiens), sequence (P04626 whole entry): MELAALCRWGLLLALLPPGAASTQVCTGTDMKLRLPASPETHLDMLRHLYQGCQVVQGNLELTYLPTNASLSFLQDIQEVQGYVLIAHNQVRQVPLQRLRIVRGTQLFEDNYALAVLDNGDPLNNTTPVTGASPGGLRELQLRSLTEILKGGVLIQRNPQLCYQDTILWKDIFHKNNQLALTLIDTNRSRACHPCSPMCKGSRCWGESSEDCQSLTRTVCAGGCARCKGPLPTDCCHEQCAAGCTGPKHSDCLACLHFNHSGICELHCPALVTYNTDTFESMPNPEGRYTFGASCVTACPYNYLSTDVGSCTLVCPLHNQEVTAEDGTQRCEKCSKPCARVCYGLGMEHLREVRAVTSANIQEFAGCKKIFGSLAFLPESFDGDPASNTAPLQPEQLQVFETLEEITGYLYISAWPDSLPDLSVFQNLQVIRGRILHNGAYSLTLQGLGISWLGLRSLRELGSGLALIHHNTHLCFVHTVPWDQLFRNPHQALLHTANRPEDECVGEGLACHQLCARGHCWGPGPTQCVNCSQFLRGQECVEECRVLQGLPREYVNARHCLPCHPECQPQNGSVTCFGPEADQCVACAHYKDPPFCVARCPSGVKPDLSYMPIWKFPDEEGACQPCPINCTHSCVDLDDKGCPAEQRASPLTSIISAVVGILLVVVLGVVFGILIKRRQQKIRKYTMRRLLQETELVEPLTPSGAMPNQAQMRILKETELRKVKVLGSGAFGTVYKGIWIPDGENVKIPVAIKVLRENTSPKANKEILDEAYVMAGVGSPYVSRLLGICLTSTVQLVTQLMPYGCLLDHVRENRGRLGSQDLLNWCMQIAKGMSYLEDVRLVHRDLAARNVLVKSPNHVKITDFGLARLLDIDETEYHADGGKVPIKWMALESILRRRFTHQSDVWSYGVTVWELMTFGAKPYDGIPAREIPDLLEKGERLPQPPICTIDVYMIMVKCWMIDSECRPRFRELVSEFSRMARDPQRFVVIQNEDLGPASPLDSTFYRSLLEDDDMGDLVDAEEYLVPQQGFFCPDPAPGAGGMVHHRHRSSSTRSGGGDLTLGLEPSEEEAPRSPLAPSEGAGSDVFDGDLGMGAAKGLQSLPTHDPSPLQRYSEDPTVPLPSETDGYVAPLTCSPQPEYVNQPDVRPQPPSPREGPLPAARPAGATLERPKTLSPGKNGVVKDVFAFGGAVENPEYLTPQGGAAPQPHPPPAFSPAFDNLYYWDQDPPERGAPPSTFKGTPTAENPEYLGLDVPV
Death-associated protein kinase 3 (Homo sapiens), sequence (O43293 whole entry, looked up): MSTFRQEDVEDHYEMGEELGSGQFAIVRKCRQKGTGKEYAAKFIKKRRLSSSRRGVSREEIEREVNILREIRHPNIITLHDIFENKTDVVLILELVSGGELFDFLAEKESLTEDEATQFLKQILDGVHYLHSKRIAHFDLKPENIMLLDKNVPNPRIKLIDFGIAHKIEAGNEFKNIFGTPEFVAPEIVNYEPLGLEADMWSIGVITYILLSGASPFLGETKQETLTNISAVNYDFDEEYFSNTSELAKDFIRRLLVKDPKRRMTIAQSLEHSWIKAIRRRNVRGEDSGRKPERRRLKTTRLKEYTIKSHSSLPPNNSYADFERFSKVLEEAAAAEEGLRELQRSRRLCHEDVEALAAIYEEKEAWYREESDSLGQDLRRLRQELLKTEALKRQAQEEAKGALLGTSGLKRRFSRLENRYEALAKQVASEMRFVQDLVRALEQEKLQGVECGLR

N#CC1(c2ccccn2)CCN(Cc2cc(C(=O)O)c(=O)n3ccccc23)CC1 [MSD-M1PAM]
inactive: residual activity [1] 80% | residual activity [2] 96% | residual activity [3] 90% | residual activity [4] 98% | residual activity [5] 94% | residual activity [6] 84% | residual activity [7] 82% | residual activity [8] 100% | residual activity [9] 95% | residual activity [10] 95% | residual activity [11] 96% | residual activity [12] 100% | residual activity [13] 100% | residual activity [14] 100% | residual activity [15] 100% | residual activity [16] 100% | residual activity [17] 97% | residual activity [18] 65% | residual activity [19] 100% | residual activity [20] 100% | residual activity [21] 73% | residual activity [22] 55% | residual activity [23] 80% | residual activity [24] 100% | residual activity [25] 79% | residual activity [26] 100% | residual activity [27] 77% | residual activity [28] 100% | residual activity [29] 88% | residual activity [30] 80% | residual activity [31] 100% | residual activity [32] 95% | residual activity [33] 92% | residual activity [34] 75% | residual activity [35] 83% | residual activity [36] 100% | residual activity [37] 100% | residual activity [38] 94% | residual activity [39] 100% | inhibition [40] 24.7% | inhibition [41] 47.3% | inhibition [42] 16.2% | inhibition (Rattus norvegicus) 7.88%

N#CC1(c2ccccn2)CCN(Cc2cc(C(=O)N3CCCC3)c(=O)n3ccccc23)CC1
inactive: residual activity [1] 83% | residual activity [2] 83% | residual activity [3] 100% | residual activity [4] 86% | residual activity [5] 88% | residual activity [6] 96% | residual activity [7] 75% | residual activity [8] 93% | residual activity [9] 86% | residual activity [10] 100% | residual activity [11] 95% | residual activity [12] 91% | residual activity [13] 88% | residual activity [14] 86% | residual activity [15] 100% | residual activity [16] 88% | residual activity [17] 100% | residual activity [18] 100% | residual activity [19] 100% | residual activity [20] 91% | residual activity [21] 81% | residual activity [22] 78% | residual activity [23] 90% | residual activity [24] 91% | residual activity [25] 100% | residual activity [26] 76% | residual activity [27] 100% | residual activity [28] 88% | residual activity [29] 92% | residual activity [30] 100% | residual activity [31] 87% | residual activity [32] 100% | residual activity [33] 95% | residual activity [34] 80% | residual activity [35] 90% | residual activity [36] 79% | residual activity [37] 88% | residual activity [38] 96% | residual activity [39] 90% | inhibition [40] 40.5% | inhibition [41] 46.8% | inhibition [42] -5.76% | inhibition (Rattus norvegicus) 46.5%
